Data: patent US11554151B2, “Composition containing Perilla frutescens fermented extract for prevention, alleviation, or treatment of sleep disorder” (AJOU UNIVERSITY INDUSTRY-ACADEMIC COOPERATION FOUNDATION, priority 2017, dated 2023)

Test system: ICR mice
Assay: Pentobarbital-induced sleep test (sleep latency and total sleeping time)
Type: in vivo
Details: Example 2-1; positive control, 1 mg/kg oral, 30 min before pentobarbital 45 mg/kg i.p.
Procedure: The sleep improvement effects of the Perilla frutescens fermented extract and conventionally sold sedatives were intended to be confirmed from comparison of sleep latency and total sleeping time.
Specifically, 0.9% physiological saline, 10 mg/kg of the Perilla frutescens extract (Perilla-W) or fermented extract thereof (Perilla-B) prepared in [Example 1], and 1 mg/kg of diazepam (Myung In Pharm. Co., Ltd.) were each orally administered to ICR mice (OrientBio). 30 minutes after the administration of the test materials, 45 mg/kg of a nerve stabilizer pentobarbital (HANLIM PHARM. Co., Ltd.) was intraperitoneally administered to induce sleep. After the administration of pentobarbital, the time required to go into deep sleep (sleep latency) and the total sleep maintenance time (total sleeping time) were measured for each test material administration group. Physiological saline and diazepam were used as a control and a positive control, respectively.
Specifically, sleep latency and total sleeping time ere measured in the same manner as in Example <2-1> using 0.9% physiological saline and 10 mg/kg of the Perilla frutescens extract (Perilla-W) or fermented extract thereof (Perilla-B, Perilla-L, and Perilla-S) prepared in [Example 1].

## CN1C(=O)CN=C(c2ccccc2)c2cc(Cl)ccc21 [diazepam]
  sleep latency: 220 s
